Data: US10023922B2, “Reporter of genomic methylation and uses thereof” (Whitehead Institute for Biomedical Research, priority 2015, dated 2018)

Test system: Gapdh and Dazl reporter constructs
Assay: In vitro methylation of reporter plasmids, checked by bisulfite conversion, PCR amplification and sequencing
Assay type: biochemical
Conditions: FIGS. 2A and 2B
From the text: Conversely, we were interested to assess whether a methylated and silent donor Snrpn promoter can be reactivated by means of demethylation acquired in vivo. For this we used the CpG methyltransferase M.SssI to in vitro methylate both Gapdh and Dazl reporter constructs.
Bisulfite conversion of DNA was established using the EpiTect Bisulfite Kit (Qiagen) following the manufacturer's instructions. The resulting modified DNA was amplified by first round of nested PCR, following a second round using loci specific PCR primers (see complete list of primers below). The first round of nested PCR was done as follows: 94° C. for 4 min; 55° C. for 2 min; 72° C. for 2 min; Repeat steps 1-3 1×; 94° C. for 1 min; 55° C. for 2 min; 72° C. for 2 min; Repeat steps 5-7 35×; 72° C. for 5 min; Hold 12° C. The second round of PCR was as followed: 95° C. for 4 min; 94° C. for 1 min; 55° C. for 2 min; 72° C. for 2 min; Repeat steps 2-4 35×; 72° C. for 5 min; Hold 12° C. The resulting amplified products were gel-purified, subcloned into A pCR2.1-TOPO-TA cloning vector (Life Technologies), and sequenced.

Substance: M.SssI: CpG methyltransferase used to in vitro methylate reporter constructs
- methylation of CGI and Snrpn promoter regions of the treated plasmids: complete hypermethylation
